# Measured values as given in patent EP3459551A1, “USE OF ARSENIC TRIOXIDE IN THE PREVENTION OR TREATMENT OF DISEASES ASSOCIATED WITH TYPE I […] ACTIVATION” (Medsenic, priority 2017, dated 2019).
# What was measured:
# naïve CD4+ T cells = experiment: pDC capacity to polarize naïve CD4+ T cells (intracellular staining and ELISA of MLR supernatants); type: cell-based, human; conditions: pDCs previously treated with ATO
# Method: (§1) pDCs were isolated from fresh peripheral blood mononuclear cells (PBMCs) by magnetic selection. Cell viability, phenotype and intracellular cytokine analyses were performed with flow cytometry. ELISA was used to analyze the cytokine concentration in supernatants.
# In addition, the effect of ATO treatment on pDC capacity to polarize naïve CD4+ T cells was assessed.
# [1] = system: pDCs after TLR9 activation; experiment: Cytokine and chemokine secretion by pDCs after TLR9 activation (ELISA of supernatants); type: cell-based, human; conditions: 0.5µM of ATO, 24h, n=4
# Method: as §1
# Then, the effect of low dose ATO (corresponding to a non-lethal, therapeutic dose) on cytokine and chemokine secretion by pDCs after TLR9 activation was studied. ELISA test of supernatants of sorted pDCs cultured with ATO for 24h were studied (n=4).
# human pDCs = experiment: Viability of human pDCs (Fixable Viability Dye, flow cytometry); type: cell-based; conditions: 24h of culture
# Method: as §1
# First, the effect of ATO on the viability of human pDCs was investigated. […] (% of living pDCs: 56.36±6.44% with 0µM vs 32.02±7.12% with 1µM of ATO, p=0.039)
# activated pDCs = experiment: Phenotype of activated pDCs (flow cytometry of maturation markers); type: cell-based, human
# Method: as §1
# Given the above results, it was addressed whether activated pDCs phenotype could be similarly impacted by ATO treatment.
# [2] = system: CD4+ naïve T cells co-cultured with ATO-treated activated pDCs; experiment: Mixed lymphocyte reaction (MLR) of pDCs and CD4+ naïve T cells: T cell proliferation; type: cell-based, human; conditions: pDCs treated with 0.5µM of ATO, n=4; 0µM control 44.97±2.53%
# Method: as §1
# In order to evaluate whether ATO can influence the capability of pDCs to activate T cells, mixed lymphocyte reaction (MLR) of pDCs and CD4+ naïve T cells were performed.
# [3] = 24h culture with non-lethal doses of ATO
substance,measurement,setting,value
arsenic trioxide [ATO],IL-10 concentration in the supernatants of MLR,naïve CD4+ T cells; ELISA,no change
same,"IL-17, IL-22 concentrations in the supernatants of MLR",naïve CD4+ T cells; ELISA,significant decrease
same,IL-22 positive cells in T cells,"naïve CD4+ T cells; intracellular staining, untreated 11.67%",7.22%
same,IFN-γ positive cells in T cells,"naïve CD4+ T cells; intracellular staining, untreated 41.13%",29.09%
same,TNF-α positive cells in T cells,"naïve CD4+ T cells; intracellular staining, untreated 47.10%",35.40%
same,IL-6 secretion,"[1]; 0µM control 2.31 ±0.39ng/ml, p=0.029",1.66 ± 0.32 ng/mL
same,TNF-α secretion,"[1]; 0µM control 6.23±0.92ng/ml, p=0.005",3.99 ± 0.79 ng/mL
same,CXCL10 secretion,"[1]; 0µM control 13.06±0.98ng/ml, p=0.036",9.44 ± 0.97 ng/mL
same,IFN-α secretion,"[1]; 0µM control 53.24±6.61ng/ml, p=0.004",25.81 ± 7.70 ng/mL
same,% of living pDCs,"human pDCs; 1µM of ATO, 0µM control 56.36±6.44%, p=0.039",32.02±7.12%
same,ATO concentration that significantly decreased viability of both non-activated and activated pDCs,human pDCs,≥ 1 µM
same,PD-L1+ pDCs,"activated pDCs; 0.5µM of ATO, 24h, n=4, 0µM control 61.44±2.37%, p=0.005",73.27 ±3.72%
same,% of CD86+ and CCR7+ pDCs,activated pDCs; [3],significant decrease
same,"relative fluorescence intensity (RFI) of CD80, CD86, and HLA-DR expressions",activated pDCs; [3],significant decrease
same,RFI for PD-L1 expression,"activated pDCs; 24h culture with non-lethal doses of ATO, p=0.09",increase
same,% of proliferating T cells,[2],37.98±2.11%
